Experimental data published in patent US20120157388A1, “EXTERNAL COMPOSITION FOR SKIN” (Shiseido Company, Ltd., priority 2007, published 2012).

Assay: Stability evaluation of lotion (appearance and smell after storage)
Type: physicochemical
Conditions: 50° C., one month
Experimental: For L-lysyl-β-alanine hydrochloride (Example 2), L-lysine (Comparative Example 6), and β-alanine (Comparative Example 7), the following external composition for skin was prepared, and the stability thereof was evaluated.
50 g each of Example 2, Comparative Example 6 and
Comparative Example 7 was placed in a 50 ml screw tube and capped. After storing them in a 50° C. incubator for one month, changes in appearance and smell were judged according to the following criteria.

stability in appearance (in words): excellently stable | stability in smell (in words): excellently stable
Structure (SMILES): NCCCC[C@H](N)C(=O)NCCC(=O)O [L-lysyl-β-alanine]
